From ChEMBL document CHEMBL1201862, “PubChem BioAssay data set” (2004)
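Compound exposure: 48 hours, 5 concentrations, 96-well plates. GI50 is the concentration that inhibits growth by half.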 Active and inactive are the calls of the source. Cut-off read from the data, not from the text of the source: active = GI50 up to about 1.1 µM and inactive = higher.

Columns and labels:
Test in all cases: NCI anticancer screen, dose series, 48 h
Hs-578T = tested on: Hs-578T
SN12C = tested on: SN12C
BT-549 = tested on: BT-549
MDA-MB-231 = tested on: MDA-MB-231
HOP-62 = tested on: HOP-62
HCC 2998 = tested on: HCC 2998
UACC-257 = tested on: UACC-257
T47D = tested on: T47D
A498 = tested on: A498
M14 = tested on: M14
K562 = tested on: K562
HCT-116 = tested on: HCT-116
SR = tested on: SR
NCI-H23 = tested on: NCI-H23
ACHN = tested on: ACHN
SF-268 = tested on: SF-268
OVCAR-4 = tested on: OVCAR-4
HT-29 = tested on: HT-29
COLO 205 = tested on: COLO 205
MCF7 = tested on: MCF7
LOX IMVI = tested on: LOX IMVI
786-0 = tested on: 786-0
CAKI-1 = tested on: CAKI-1
SW-620 = tested on: SW-620
MOLT-4 = tested on: MOLT-4
NCI-H522 = tested on: NCI-H522
NCI-H460 = tested on: NCI-H460
MDA-N = tested on: MDA-N
HCT-15 = tested on: HCT-15
TK-10 = tested on: TK-10
SK-MEL-28 = tested on: SK-MEL-28
U-251 = tested on: U-251
HOP-92 = tested on: HOP-92
Malme-3M = tested on: Malme-3M
RXF 393 = tested on: RXF 393
UO-31 = tested on: UO-31
MDA-MB-435 = tested on: MDA-MB-435
SF-539 = tested on: SF-539
SK-MEL-5 = tested on: SK-MEL-5
SK-MEL-2 = tested on: SK-MEL-2
SF-295 = tested on: SF-295
PC-3 = tested on: PC-3
SNB-19 = tested on: SNB-19
SK-OV-3 = tested on: SK-OV-3
RPMI-8226 = tested on: RPMI-8226
HL-60 = tested on: HL-60
EKVX = tested on: EKVX
IGROV-1 = tested on: IGROV-1
OVCAR-8 = tested on: OVCAR-8
OVCAR-3 = tested on: OVCAR-3
DU-145 = tested on: DU-145
A549 = tested on: A549
NCI-H226 = tested on: NCI-H226
CCRF-CEM = tested on: CCRF-CEM
NCI/ADR-RES = tested on: NCI/ADR-RES
UACC-62 = tested on: UACC-62
OVCAR-5 = tested on: OVCAR-5
KM12 = tested on: KM12
SNB-75 = tested on: SNB-75

CCN(CC)CCCNc1c2c(Cl)cc(Cl)cc2nc2nc(O)nc(C)c12
GI50 (Hs-578T): 47.5 µM (inactive)
GI50 (SN12C): 25.3 µM (inactive)
GI50 (BT-549): 84.5 µM (inactive)
GI50 (MDA-MB-231): 18.5 µM (inactive)
GI50 (HOP-62): 23.2 µM (inactive)
GI50 (HCC 2998): 21.5 µM (inactive)
GI50 (UACC-257): 43 µM (inactive)
GI50 (T47D): > 100 µM (inactive)
GI50 (A498): > 100 µM (inactive)
GI50 (M14): 26.4 µM (inactive)
GI50 (K562): 44.1 µM (inactive)
GI50 (HCT-116): 17.1 µM (inactive)
GI50 (SR): > 10 µM (inactive)
GI50 (NCI-H23): 55.8 µM (inactive)
GI50 (ACHN): > 100 µM (inactive)
GI50 (SF-268): 23 µM (inactive)
GI50 (OVCAR-4): 33.9 µM (inactive)
GI50 (HT-29): 18 µM (inactive)
GI50 (COLO 205): 45.3 µM (inactive)
GI50 (MCF7): 23.3 µM (inactive)
GI50 (LOX IMVI): 23.1 µM (inactive)
GI50 (786-0): 18.7 µM (inactive)
GI50 (CAKI-1): > 100 µM (inactive)
GI50 (SW-620): 17.8 µM (inactive)
GI50 (MOLT-4): 20.7 µM (inactive)
GI50 (NCI-H522): 21.6 µM (inactive)
GI50 (NCI-H460): 20.2 µM (inactive)
GI50 (MDA-N): 18.6 µM (inactive)
GI50 (HCT-15): > 100 µM
GI50 (TK-10): > 100 µM (inactive)
GI50 (SK-MEL-28): 30.6 µM (inactive)
GI50 (U-251): 17.3 µM (inactive)
GI50 (HOP-92): 57.3 µM (inactive)
GI50 (Malme-3M): 41.6 µM (inactive)
GI50 (RXF 393): > 100 µM (inactive)
GI50 (UO-31): > 100 µM (inactive)
GI50 (MDA-MB-435): 21.3 µM (inactive)
GI50 (SF-539): > 100 µM (inactive)
GI50 (SK-MEL-5): 65.9 µM (inactive)
GI50 (SK-MEL-2): 27.5 µM (inactive)
GI50 (SF-295): 59.8 µM (inactive)
GI50 (PC-3): 30.7 µM (inactive)
GI50 (SNB-19): 19.5 µM (inactive)
GI50 (SK-OV-3): 25.6 µM (inactive)
GI50 (RPMI-8226): > 10 µM (inactive)
GI50 (HL-60): 57.4 µM (inactive)
GI50 (EKVX): > 100 µM (inactive)
GI50 (IGROV-1): 35.6 µM (inactive)
GI50 (OVCAR-8): > 10 µM (inactive)
GI50 (OVCAR-3): 77.6 µM (inactive)
GI50 (DU-145): > 100 µM (inactive)
GI50 (A549): 42.9 µM (inactive)
GI50 (NCI-H226): 55.2 µM (inactive)
GI50 (CCRF-CEM): 34.5 µM (inactive)
GI50 (NCI/ADR-RES): > 100 µM (inactive)
GI50 (UACC-62): 68.2 µM (inactive)
GI50 (OVCAR-5): 19.9 µM (inactive)
GI50 (KM12): 15.7 µM (inactive)

CN1CCN(c2cc3[nH]c(-c4ccc(Cl)cc4)nc3cc2F)CC1
GI50 (Hs-578T): 16.1 µM (inactive)
GI50 (SN12C): 26.7 µM (inactive)
GI50 (BT-549): 15.8 µM (inactive)
GI50 (MDA-MB-231): 17.4 µM (inactive)
GI50 (HOP-62): 16.8 µM (inactive)
GI50 (HCC 2998): 4.71 µM (inactive)
GI50 (UACC-257): 10.8 µM (inactive)
GI50 (T47D): 19.1 µM (inactive)
GI50 (A498): 18.2 µM (inactive)
GI50 (M14): 2.84 µM (inactive)
GI50 (K562): 3.78 µM (inactive)
GI50 (HCT-116): 13.8 µM (inactive)
GI50 (SR): 24.1 µM (inactive)
GI50 (NCI-H23): 15.8 µM (inactive)
GI50 (ACHN): 12.5 µM (inactive)
GI50 (SF-268): 16.2 µM (inactive)
GI50 (OVCAR-4): 22.8 µM (inactive)
GI50 (COLO 205): 18.2 µM (inactive)
GI50 (MCF7): 7.82 µM (inactive)
GI50 (LOX IMVI): 10.5 µM (inactive)
GI50 (786-0): 20.1 µM (inactive)
GI50 (CAKI-1): 19.5 µM (inactive)
GI50 (SW-620): 21.8 µM (inactive)
GI50 (MOLT-4): 10.9 µM (inactive)
GI50 (NCI-H522): 15.6 µM (inactive)
GI50 (NCI-H460): 11.5 µM (inactive)
GI50 (MDA-N): 12.8 µM (inactive)
GI50 (HCT-15): 5.42 µM
GI50 (TK-10): 4.37 µM (inactive)
GI50 (SK-MEL-28): 8.75 µM (inactive)
GI50 (U-251): 21.4 µM (inactive)
GI50 (HOP-92): 25.4 µM (inactive)
GI50 (Malme-3M): 10.5 µM (inactive)
GI50 (RXF 393): 13.8 µM (inactive)
GI50 (UO-31): 7.1 µM (inactive)
GI50 (MDA-MB-435): 11.4 µM (inactive)
GI50 (SK-MEL-5): 10.6 µM (inactive)
GI50 (SK-MEL-2): 16.8 µM (inactive)
GI50 (SF-295): 15.2 µM (inactive)
GI50 (PC-3): 16.8 µM (inactive)
GI50 (SNB-75): 14.7 µM (inactive)
GI50 (SNB-19): 21.3 µM (inactive)
GI50 (SK-OV-3): 22.2 µM (inactive)
GI50 (RPMI-8226): 14.1 µM (inactive)
GI50 (HL-60): > 10 µM (inactive)
GI50 (EKVX): 22.2 µM (inactive)
GI50 (IGROV-1): 15.7 µM (inactive)
GI50 (OVCAR-8): 26.9 µM (inactive)
GI50 (OVCAR-3): 11.8 µM (inactive)
GI50 (DU-145): 22.1 µM (inactive)
GI50 (A549): 17.6 µM (inactive)
GI50 (NCI-H226): 6.81 µM (inactive)
GI50 (CCRF-CEM): 13.4 µM (inactive)
GI50 (NCI/ADR-RES): 21 µM (inactive)
GI50 (UACC-62): 4.32 µM (inactive)
GI50 (OVCAR-5): 15.2 µM (inactive)
GI50 (KM12): 10.8 µM (inactive)
